Patent publication US20230000852A1, “Treatment of Dermal Cytokine Storm Syndromes” (Bridge Pharma, Inc., priority 2021, published 2023)
Like-named read-outs stand apart in the source and are kept apart here.

Tests used:
[1] = system: IMQ-induced psoriasiform hypercytokinemia; experiment: Imiquimod (IMQ) induced psoriasis in mice; format: in vivo; settings: for Scratching bouts: Day 6, 30 minutes observation; for Total Scores ± SEM: cumulative erythema plus scaling plus thickness; for Mean Scores of Skin Lesions: Redness / Mean Scores of Skin Lesions: Scaling / Mean Scores of Skin Lesions: Thickness: scale 0 to 4
Source text: The objective of this study was to assess the ability of NK to inhibit the IMQ-induced psoriasiform hypercytokinemia in mice. Topically applied IMQ is known to induce a psoriasis-like Cytokine Storm in mice by releasing a large number of cytokines, thereby causing a disease (hypercytokinemia) that is closely similar to psoriasis in human patients. Female BALB/c mice were used (8-11 weeks old; 4 animals/group). A psoriasiform skin condition was induced by repeated applications of an IMO-cream on the pre-shaved skin of the back of mice for 6 days, using […] 5% cream (IMQ-cream), at a dose of 62.5 mg per mouse, which is equal to 3.125 mg active per mouse. Starting from day 3 of dosing the skin was scored for Redness, Thickness and Scaling using a scoring system on the scale of 0 to 4, where 0=none; 1=slight; 2=moderate; 3=marked; and 4=very marked. The cumulative scores (erythema plus scaling plus thickness) served as a measure of the severity of dermal, psoriasis-like inflammation. […] A scratch bout was defined as one or more rapid back-and-forth hind paw motions directed toward and contacting the IMQ-treated area. • Group 1: (IMQ Positive Control Group): 4 mice were treated as described above. • Group 2: 4 mice were given NK 10 mg/kg/day, PO, starting 3 days before the first application of IMQ. • Group 3: same treatment as Group 2, but the dose of NK was 20 mg/kg/day. • Group 4: same treatment as Group 3, but the dose of NK was 30 mg/kg/day. ANOVA (Dunnett's Method)-positive control (IMQ) vs test groups. The methodology used here was the van der Fits (2009) method with minor modifications.

IL-1β = experiment: PHA-induced IL-1β release from human leucocytes (buffy coats); format: cell-based; settings: Leucocyte, 30 min pre-incubation, PHA 5 μg/ml 16 hours
Experimental: (§1) The objective of this study was to assess the ability of norketotifen to inhibit cytokine release from stimulated human leucocytes.
(§2) The study was conducted in two phases. The first phase included optimization of the test methodology and including dose-range finding studies, using buffy coats from 3 human donors, stimulated with phytohemagglutinin (PHA). Following optimization of the test conditions, a final protocol was issued. In the ensuing Main Study, white blood cells (buffy coats) from 5 healthy human donors were stimulated with PHA, 5 μg/ml. The concentrations of the test article and the duration of exposure were optimized to obtain acceptable dose-response ratios. Thus, the inhibitory effects of three concentrations of NK and one concentration of ketotifen were evaluated in the Main Study. The buffy coats containing white blood cells from 5 male human donors were resuspended in assay media and were pre-incubated for 30 min with either vehicle/saline, ketotifen 4.3 μg/ml (10 μM) and norketotifen 0.4 μg/ml, 4.1 μg/ml and 41 μg/ml (1.0; 10 and 100 μM). Following these preincubations, the white blood cells were stimulated for 16 hours with PHA, 5 μg/ml. The cell system supernatants were then harvested and stored frozen pending analyses.
(§3) The concentration of the test articles had to be high in this ex vivo study since the test kit used a high concentration of the agonist PHA (5 μg/ml) and a long exposure time (16 hrs).

IL-6 = experiment: PHA-induced IL-6 release from human leucocytes (buffy coats); format: cell-based; settings: Leucocyte, 30 min pre-incubation, PHA 5 μg/ml 16 hours
Experimental: as §1, §2, §3

TNFα = experiment: PHA-induced TNFα release from human leucocytes (buffy coats); format: cell-based; settings: Leucocyte, 30 min pre-incubation, PHA 5 μg/ml 16 hours
Experimental: as §1, §2, §3

IL-4 = experiment: PHA-induced IL-4 release from human leucocytes (buffy coats); format: cell-based; settings: Leucocyte, 30 min pre-incubation, PHA 5 μg/ml 16 hours
Experimental: as §1, §2, §3

IL-2 = experiment: PHA-induced IL-2 release from human leucocytes (buffy coats); format: cell-based; settings: Leucocyte, 30 min pre-incubation, PHA 5 μg/ml 16 hours
Experimental: as §1, §2, §3

IL-8 = experiment: PHA-induced IL-8 release from human leucocytes (buffy coats); format: cell-based; settings: Leucocyte, 30 min pre-incubation, PHA 5 μg/ml 16 hours
Experimental: as §1, §2, §3

IL-13 = experiment: PHA-induced IL-13 release from human leucocytes (buffy coats); format: cell-based; settings: Leucocyte, 30 min pre-incubation, PHA 5 μg/ml 16 hours
Experimental: as §1, §2, §3

MCP-1 = experiment: PHA-induced MCP-1 release from human leucocytes (buffy coats); format: cell-based; settings: Leucocyte, 30 min pre-incubation, PHA 5 μg/ml 16 hours
Experimental: as §1, §2, §3

MIP-1a = experiment: PHA-induced MIP-1a release from human leucocytes (buffy coats); format: cell-based; settings: Leucocyte, 30 min pre-incubation, PHA 5 μg/ml 16 hours
Experimental: as §1, §2, §3

[2] = system: human leucocytes (buffy coats); experiment: Cytokine and chemokine release from stimulated human leucocytes, overall; format: cell-based; settings: PHA 5 μg/ml, 16 hours
Experimental: as §1
as §2, with “analyses. […]” for “analyses.”

[3] = system: IL31-induced (SC) pruritus; experiment: IL-31-induced pruritus in mice; format: in vivo; settings: at the dose tested
Experimental: To determine if NK inhibits IL31-induced pruritus in mice. Studies have now been performed, using murine IL31 as a pruritogen. Mice were dosed orally with a test article exactly 60 minutes before murine IL31 at a dose of 1.0 μg/30 gram body weight was injected subcutaneously into a previously depilated area on the rostral part of the back of mice. IL31 was dissolved in phosphate buffered saline (PBS) with 0.1% bovine serum albumin (BSA). The injected volume was 0.1 ml/mouse. The bouts of scratching were counted for 120 min, starting 30 min after the injection of IL31. The bouts of scratching were counted by trained laboratory personnel who were unaware of the pretreatment of the animals. Oclacitinib (Apoquel®) is a Janus kinase inhibitor that is the worldwide market leader for oral treatment of atopic dermatitis in dogs.

sedation [4] = settings: art-accepted mouse model of sedation; U.S. Pat. Nos. 7,226,934 and 7,557,128; cited from earlier work
sedation [5] = settings: dogs, oral; U.S. Pat. No. 8,557,846; cited from earlier work
sedation [6] = settings: humans, oral; U.S. Pat. Nos. 9,138,431 and 9,345,697; cited from earlier work

O=C1Cc2ccccc2C(=C2CCNCC2)c2ccsc21 (racemic) [NK, norketotifen]
Scratching bouts ([1]; NK 10 mg/kg/day PO from 3 days before IMQ): 7.0 | Total Scores ± SEM ([1]; NK 10 mg/kg/day oral): 1.5 ± 0.65 | Mean Scores of Skin Lesions: Redness ([1]; NK 10 mg/kg/day oral): 0.75 | Mean Scores of Skin Lesions: Scaling ([1]; NK 10 mg/kg/day oral): 0.25 | Mean Scores of Skin Lesions: Thickness ([1]; NK 10 mg/kg/day oral): 0.5 | Scratching bouts ([1]; NK 20 mg/kg/day PO from 3 days before IMQ): 4.25 | Total Scores ± SEM ([1]; NK 20 mg/kg/day oral): 0.5 ± 0.29 | Mean Scores of Skin Lesions: Redness ([1]; NK 20 mg/kg/day oral): 0.5 | Mean Scores of Skin Lesions: Scaling ([1]; NK 20 mg/kg/day oral): 0 | Mean Scores of Skin Lesions: Thickness ([1]; NK 20 mg/kg/day oral): 0 | Total Scores ± SEM ([1]; NK 30 mg/kg/day oral): 0.33 ± 0.33 | Mean Scores of Skin Lesions: Redness ([1]; NK 30 mg/kg/day oral): 0.33 | Mean Scores of Skin Lesions: Scaling ([1]; NK 30 mg/kg/day oral): 0 | Mean Scores of Skin Lesions: Thickness ([1]; NK 30 mg/kg/day oral): 0 | Inhibition of psoriasis-related cytokine storm (in words) ([1]; antipruritic activity and redness, thickness, scaling scores): almost completely inhibited | Effect on scratching in mice (in words) ([1]; oral NK, not statistically significant (p>0.05)): dose-dependent effect | inhibition at 1 µM (IL-1β; 1 uM): 0% | inhibition at 10 µM (IL-1β; 10 uM): 16.2% | inhibition at 100 µM (IL-1β; 100 uM): 57% | inhibition at 1 µM (IL-6; 1 uM): 0% | inhibition at 10 µM (IL-6; 10 uM): 33.1% | inhibition at 100 µM (IL-6; 100 uM): 88.2% | inhibition at 1 µM (TNFα; 1 uM): 4.54% | inhibition at 10 µM (TNFα; 10 uM): 42.2% | inhibition at 100 µM (TNFα; 100 uM): 89.1% | inhibition at 1 µM (IL-4; 1 uM): 0% | inhibition at 10 µM (IL-4; 10 uM): 14.3% | inhibition at 100 µM (IL-4; 100 uM): 98.3% | inhibition at 1 µM (IL-2; 1 uM): 0% | inhibition at 10 µM (IL-2; 10 uM): 46.6% | inhibition at 100 µM (IL-2; 100 uM): 93.5% | inhibition at 1 µM (IL-8; 1 uM): 10.3% | inhibition at 10 µM (IL-8; 10 uM): 34.4% | inhibition at 100 µM (IL-8; 100 uM): 78.3% | inhibition at 1 µM (IL-13; 1 uM): 0% | inhibition at 10 µM (IL-13; 10 uM): 34.5% | inhibition at 100 µM (IL-13; 100 uM): 74.2% | inhibition at 1 µM (MCP-1; 1 uM): 2.04% | inhibition at 10 µM (MCP-1; 10 uM): 14.3% | inhibition at 100 µM (MCP-1; 100 uM): 84.5% | inhibition at 1 µM (MIP-1a; 1 uM): 9.53% | inhibition at 10 µM (MIP-1a; 10 uM): 25.9% | inhibition at 100 µM (MIP-1a; 100 uM): 91% | Inhibition of release of cytokines and chemokines from human white blood cells (in words) [2]: dose-dependently inhibited | Effect on IL-31-induced pruritus (in words) [3]: decreased IL-31-induced pruritus | Sedative effects (sedation [4]): significant sedative effects | Sedative side effects (sedation [5]): free from sedative side effects | Sedative side effects (sedation [6]): free from sedative side effects
